Experimental data as given in ChEMBL document CHEMBL4834391, “Role of Ascaridole and p-Cymene in the Sleep-Promoting Effects of Dysphania ambrosioides Essential Oil via the GABAergic System in a ddY Mouse Inhalation Model” (J Nat Prod, 2021).
Activity calls are given as the source filed them. The rule behind the calls is not given here.

What was measured:
[1] = Sedative activity in ddY mouse assessed as decrease in spontaneous locomotor activity at 0.04 mg administered via inhalation relative to control; design: scale not given: the % may be the effect or the level left; settings: in vivo, inhaled_or_intranasal
[2] = Toxicity in mouse assessed as lethal dose; settings: in vivo
[3] = Sedative activity in ddY mouse assessed as decrease in spontaneous locomotor activity at 0.0004 mg administered via inhalation relative to control; design: scale not given: the % may be the effect or the level left; settings: in vivo, inhaled_or_intranasal
[4] = Sedative activity in ddY mouse assessed as decrease in spontaneous locomotor activity at 0.004 mg administered via inhalation relative to control; design: scale not given: the % may be the effect or the level left; settings: in vivo, inhaled_or_intranasal
[5] = Sedative activity in ddY mouse assessed as decrease in caffeine-induced spontaneous locomotor activity at 0.004 mg administered via inhalation post caffeine stimulation (reference value: 68 %); design: scale not given: the % may be the effect or the level left; settings: in vivo, inhaled_or_intranasal
Mus musculus [6] = assay: Myorelaxant effect in ddY mouse assessed as decrease in endurance latency time at 0.004 mg administered via inhalation by rota-rod test; type: functional, organism-based
[7] = Sedative activity in ddY mouse assessed as decrease in spontaneous locomotor activity at 0.4 mg administered via inhalation relative to control; design: scale not given: the % may be the effect or the level left; settings: in vivo, inhaled_or_intranasal
[8] = Sedative activity in ddY mouse assessed as decrease in spontaneous locomotor activity at 0.00004 mg administered via inhalation relative to control; design: scale not given: the % may be the effect or the level left; settings: in vivo, inhaled_or_intranasal, at 40 ng
Mus musculus [9] = assay: Sleep-promoting activity in ddY mouse assessed as enhancement of pentobarbital-induced sleep resulting in prolonged sleeping time at 0.004 mg administered via inhalation relative to control; type: functional
[10] = Sedative activity in ddY mouse assessed as decrease in spontaneous locomotor activity when administered via inhalation relative to control; design: scale not given: the % may be the effect or the level left; settings: in vivo, inhaled_or_intranasal
Mus musculus [11] = assay: Sleep-promoting activity in ddY mouse assessed as decrease in pentobarbital-induced sleep ing duration at 3 mg/kg relative to control; type: functional; design: scale not given: the % may be the effect or the level left
Mus musculus [12] = species on record: Mus musculus; assay: Myorelaxant effect in ddY mouse assessed as decrease in endurance latency time by rota-rod test; type: functional, organism-based
[13] = Sedative activity in ddY mouse assessed as decrease in caffeine-induced spontaneous locomotor activity at 0.000004 mg administered via inhalation post caffeine stimulation (reference value: 68 %); design: scale not given: the % may be the effect or the level left; settings: in vivo, inhaled_or_intranasal, at 4 ng
Mus musculus [14] = assay: Myorelaxant effect in ddY mouse assessed as decrease in endurance latency time at 0.000004 mg administered via inhalation by rota-rod test; type: functional, organism-based; settings: dose 4 ng
Mus musculus [15] = assay: Sleep-promoting activity in ddY mouse assessed as enhancement of pentobarbital-induced sleep resulting in prolonged sleeping time at 0.000004 mg administered via inhalation relative to control; type: functional; settings: dose 4 ng

Structure (SMILES) | Activity [1] | LD50 [2] | Activity [3] | Activity [4] | Activity [5] | Activity (Mus musculus [6]) | Activity [7] | Activity [8] | Activity (Mus musculus [9]) | Activity [10] | Activity (Mus musculus [11]) | Activity (Mus musculus [12]) | Activity [13] | Activity (Mus musculus [14]) | Activity (Mus musculus [15])
CC(C)C12C=CC(C)(CC1)OO2 (configuration not stated) [ASCARIDOLE] | 64% | 400 mg/kg | 52% | 67% | 47% | inactive | 56% | 64% | 42% | 56% | – | – | – | – | –
CCOC(=O)c1ncn2c1CN(C)C(=O)c1cc(F)ccc1-2 [FLUMAZENIL] | – | – | – | – | – | – | – | – | – | – | 31% | – | – | – | –
CN1C(=O)CN=C(c2ccccc2)c2cc(Cl)ccc21 | – | – | – | – | – | – | – | – | – | – | – | Active | – | – | –
Cc1ccc(C(C)C)cc1 [P-CYMENE] | 67% | 4750 mg/kg | 57% | 61% | – | – | 68% | 69% | – | 63% | – | – | 50% | inactive | 77%
